Laboratory results taken from article PMC12028158, “Synthesis and In Vitro Evaluation of the Anticancer Effect of Novel Phosphonium Vindoline Derivatives” (International Journal of Molecular Sciences, 2025).

Tests used:
Type in all cases: cell-based
[1] = system: IGROV1; test: NCI60 one-dose screen; details: Homo sapiens, IGROV-1, read-out: Growth percent
[2] = system: 786-0; test: NCI60 one-dose screen; details: Homo sapiens, 786-0, read-out: Growth percent
[3] = system: Leukemia panel; test: NCI60 five-dose screen, panel mean; details: Homo sapiens, read-out: GI50 Mean
[4] = system: Ovarian Cancer panel; test: NCI60 five-dose screen, panel mean; details: Homo sapiens, read-out: GI50 Mean
[5] = system: OVCAR-8; test: NCI60 one-dose screen; details: Homo sapiens, OVCAR-8, read-out: Growth percent
[6] = system: EKVX; test: NCI60 five-dose screen; details: Homo sapiens
[7] = system: Renal Cancer panel; test: NCI60 five-dose screen, panel mean; details: Homo sapiens, read-out: GI50 Mean
[8] = system: NCI-H23; test: NCI60 one-dose screen; details: Homo sapiens, NCI-H23, read-out: Growth percent
[9] = system: MALME-3M; test: NCI60 one-dose screen; details: Homo sapiens, Malme-3M, read-out: Growth percent
[10] = system: MDA-MB-435; test: NCI60 one-dose screen; details: Homo sapiens, MDA-MB-435, read-out: Growth percent
[11] = system: LOX IMVI; test: NCI60 five-dose screen; details: Homo sapiens
[12] = system: M14; test: NCI60 one-dose screen; details: Homo sapiens, M14, read-out: Growth percent
[13] = system: HCT-15; test: NCI60 five-dose screen; details: Homo sapiens, HCT-15
[14] = system: SK-MEL-28; test: NCI60 one-dose screen; details: Homo sapiens, SK-MEL-28, read-out: Growth percent
[15] = system: COLO 205; test: NCI60 one-dose screen; details: Homo sapiens, COLO 205, read-out: Growth percent
[16] = system: HS 578T; test: NCI60 one-dose screen; details: Homo sapiens, Hs-578T, read-out: Growth percent
[17] = system: OVCAR-8; test: NCI60 five-dose screen; details: Homo sapiens, OVCAR-8
[18] = system: MDA-MB-468; test: NCI60 five-dose screen; details: Homo sapiens, MDA-MB-468
[19] = system: SK-MEL-5; test: NCI60 one-dose screen; details: Homo sapiens, SK-MEL-5, read-out: Growth percent
[20] = system: NCI-H322M; test: NCI60 one-dose screen; details: Homo sapiens, read-out: Growth percent
[21] = system: SNB-19; test: NCI60 five-dose screen; details: Homo sapiens, SNB-19
[22] = system: UACC-257; test: NCI60 five-dose screen; details: Homo sapiens, UACC-257
[23] = system: SF-295; test: NCI60 one-dose screen; details: Homo sapiens, SF-295, read-out: Growth percent
[24] = system: NCI-H23; test: NCI60 five-dose screen; details: Homo sapiens, NCI-H23
[25] = system: KM12; test: NCI60 five-dose screen; details: Homo sapiens, KM12
[26] = system: UACC-62; test: NCI60 one-dose screen; details: Homo sapiens, UACC-62, read-out: Growth percent
[27] = system: SK-MEL-5; test: NCI60 five-dose screen; details: Homo sapiens, SK-MEL-5
[28] = system: SN12C; test: NCI60 one-dose screen; details: Homo sapiens, read-out: Growth percent
[29] = system: NCI-H460; test: NCI60 one-dose screen; details: Homo sapiens, NCI-H460, read-out: Growth percent
[30] = system: SF-268; test: NCI60 one-dose screen; details: Homo sapiens, SF-268, read-out: Growth percent
[31] = system: SF-539; test: NCI60 five-dose screen; details: Homo sapiens, SF-539
[32] = system: MCF7; test: NCI60 one-dose screen; details: Homo sapiens, MCF7, read-out: Growth percent
[33] = system: SK-MEL-2; test: NCI60 one-dose screen; details: Homo sapiens, SK-MEL-2, read-out: Growth percent
[34] = system: MCF7; test: NCI60 five-dose screen; details: Homo sapiens, MCF7
[35] = system: MOLT-4; test: NCI60 one-dose screen; details: Homo sapiens, MOLT-4, read-out: Growth percent
[36] = system: SR; test: NCI60 one-dose screen; details: Homo sapiens, read-out: Growth percent
[37] = system: SNB-19; test: NCI60 one-dose screen; details: Homo sapiens, SNB-19, read-out: Growth percent
[38] = system: MALME-3M; test: NCI60 five-dose screen; details: Homo sapiens, Malme-3M
[39] = system: A549/ATCC; test: NCI60 five-dose screen; details: Homo sapiens, A549
[40] = system: RPMI-8226; test: NCI60 one-dose screen; details: Homo sapiens, RPMI-8226, read-out: Growth percent
[41] = system: OVCAR-3; test: NCI60 five-dose screen; details: Homo sapiens, OVCAR-3
[42] = system: SK-MEL-28; test: NCI60 five-dose screen; details: Homo sapiens, SK-MEL-28
[43] = system: HOP-62; test: NCI60 five-dose screen; details: Homo sapiens, HOP-62
[44] = system: HOP-92; test: NCI60 one-dose screen; details: Homo sapiens, HOP-92, read-out: Growth percent
[45] = system: T-47D; test: NCI60 five-dose screen; details: Homo sapiens, T47D
[46] = system: HL-60(TB); test: NCI60 five-dose screen; details: Homo sapiens, HL-60

CC[C@]12C=CCN3CC[C@@]4(c5ccc(OC)cc5N(C)[C@H]4[C@@](O)(C(=O)OC)[C@@H]1OC(=O)CCCC[P+](c1ccc(C)cc1)(c1ccc(C)cc1)c1ccc(C)cc1)[C@@H]32 [10a]
activity at 10 µM [1]: -91.8% | activity at 10 µM [2]: -91% | GI50 [3]: 480 nM | GI50 [4]: 2540 nM | activity at 10 µM [5]: -86.6% | GI50 [6]: 1050 nM | GI50 [7]: 2340 nM | activity at 10 µM [8]: -92.4% | activity at 10 µM [9]: -96% | activity at 10 µM [10]: -86.8% | GI50 [11]: 797 nM | activity at 10 µM [12]: -88.3% | GI50 [13]: 2170 nM | activity at 10 µM [14]: -97.8% | activity at 10 µM [15]: -64.1% | activity at 10 µM [16]: -69.9% | GI50 [17]: 1130 nM | GI50 [18]: 264 nM | activity at 10 µM [19]: -98.5% | activity at 10 µM [20]: -97.6% | GI50 [21]: 960 nM | GI50 [22]: 817 nM | activity at 10 µM [23]: -91.8% | GI50 [24]: 855 nM | GI50 [25]: 596 nM | activity at 10 µM [26]: -97.4% | GI50 [27]: 1570 nM | activity at 10 µM [28]: -88.5% | activity at 10 µM [29]: -86.6% | activity at 10 µM [30]: -61.1% | GI50 [31]: 1220 nM | activity at 10 µM [32]: -81.2% | activity at 10 µM [33]: -87.2% | GI50 [34]: 325 nM | activity at 10 µM [35]: -25% | activity at 10 µM [36]: 25.8% | activity at 10 µM [37]: -96.5% | GI50 [38]: 1170 nM | GI50 [39]: 819 nM | activity at 10 µM [40]: -46% | GI50 [41]: 604 nM | GI50 [42]: 485 nM | GI50 [43]: 1370 nM | activity at 10 µM [44]: -77.9% | GI50 [45]: 370 nM | GI50 [46]: 221 nM

CC[C@]12C=CCN3CC[C@@]4(c5ccc(OC)cc5N(C)[C@H]4[C@@](O)(C(=O)OC)[C@@H]1OC(=O)CCCC[P+](c1ccc(OC)cc1)(c1ccc(OC)cc1)c1ccc(OC)cc1)[C@@H]32 [10b]
activity at 10 µM [1]: -92% | activity at 10 µM [2]: -92.9% | GI50 [3]: 560 nM | GI50 [4]: 4110 nM | activity at 10 µM [5]: -90.2% | GI50 [6]: 185 nM | GI50 [7]: 4340 nM | activity at 10 µM [8]: -90.7% | activity at 10 µM [9]: -97.2% | activity at 10 µM [10]: -88.5% | GI50 [11]: 1110 nM | activity at 10 µM [12]: -89.8% | GI50 [13]: 8790 nM | activity at 10 µM [14]: -96.8% | activity at 10 µM [15]: -64.9% | activity at 10 µM [16]: -67.5% | GI50 [17]: 1990 nM | GI50 [18]: 264 nM | activity at 10 µM [19]: -97% | activity at 10 µM [20]: -89.7% | GI50 [21]: 484 nM | GI50 [22]: 792 nM | activity at 10 µM [23]: -93.6% | GI50 [24]: 1190 nM | GI50 [25]: 675 nM | activity at 10 µM [26]: -95.2% | GI50 [27]: 1600 nM | activity at 10 µM [28]: -95.3% | activity at 10 µM [29]: -87% | activity at 10 µM [30]: -38.1% | GI50 [31]: 1520 nM | activity at 10 µM [32]: -82.6% | activity at 10 µM [33]: -91.4% | GI50 [34]: 105 nM | activity at 10 µM [35]: -26.2% | activity at 10 µM [36]: 23.2% | activity at 10 µM [37]: -95.7% | GI50 [38]: 1130 nM | GI50 [39]: 1650 nM | activity at 10 µM [40]: -68.8% | GI50 [41]: 634 nM | GI50 [42]: 486 nM | GI50 [43]: 2420 nM | activity at 10 µM [44]: -74.5% | GI50 [45]: 383 nM | GI50 [46]: 234 nM
